Measured values: US5171864A, “Di-(5-hydroxy-2(5H)-2-oxo-4-furyl)methyl-alpha,omega alkane-dioates and N,N-bis-(5-hydroxy-2(5H)-2-oxo-4-furyl)methyl-alpha,omega-dialkanoic acid amides as anti-inflammatory agents” (Allergan, Inc., priority 1991, dated 1992)
Like-named read-outs stand apart in the source and are kept apart here.

Experiments:
[1] = target: bee venom phospholipase A2 (Apis mellifera, UniProt P00630); assay: biochemical; conditions: read-out: PLA2 IC50
[2] = target: phosphoinositide-specific phospholipase C; assay: Inhibition of phosphoinositide-specific phospholipase C (PLC); format: biochemical; conditions: procedure of Bennett et al, Molecular Pharmacology 32:587-593 (1987)
Description: Inhibition of Phosphoinositide-specific Phospholipase C
The effect of compounds of this invention on phosphoinositide-specific phospholipase C may be determined by procedures described by Bennett et al, Molecular Pharmacology 32:587-593 (1987).

Sequence of bee venom phospholipase A2 (P00630 34-167 limits assumed): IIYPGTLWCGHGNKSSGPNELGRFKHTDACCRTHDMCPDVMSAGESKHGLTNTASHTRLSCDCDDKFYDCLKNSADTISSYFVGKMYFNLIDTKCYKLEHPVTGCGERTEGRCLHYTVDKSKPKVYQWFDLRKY

SMILES	IC50 [1]	IC50 [2]	IC50 ([1]; pH 7.4)
O=C1C=C(COC(=O)CCCCCCCCCCC(=O)OCC2=CC(=O)OC2O)C(O)O1 (stereo not shown) [Compound 1, Di-[5-hydroxy-2(5H)-2-oxo-4-furyl]methyl dodecan-1,12-dioate]	70 nM	> 100000 nM	–
CC(C)(C)C(=O)OC1OC(=O)C=C1COC(=O)CCCCCCCCCCC(=O)OCC1=CC(=O)OC1OC(=O)C(C)(C)C (stereo not shown) [Compound 2, Di-[5tert-butanoyloxy-2(5H)-furano-4yl]methyl dodecan-1,12-dioate]	–	> 100000 nM	> 1000 nM
O=C(CCCCCCCCCCC(=O)NCC1=CC(=O)OC1O)NCC1=CC(=O)OC1O (stereo not shown) [Compound 3, N,N'-Bis(5-hydroxy-2(5H)-2-oxo-4-furyl)methyl-1,12-dodecanoic acid amide]	30 nM	> 100000 nM	–
O=C(CCCCCCCCCCC(=O)NCC1=CC(=O)OC1OC(=O)Nc1ccccc1)NCC1=CC(=O)OC1O (stereo not shown) [Compound 4, N-(5-Hydroxy-2(5H)2-oxo-4-furyl)methyl-N'-(5-phenylcarbamoyloxy-2(5H) 2-oxo-4-furyl)methyl-1,12-dodecanamide]	–	> 100000 nM	> 1000 nM
O=C(CCCCCCCCCCC(=O)NCC1=CC(=O)OC1OC(=O)Nc1ccccc1)NCC1=CC(=O)OC1OC(=O)Nc1ccccc1 (stereo not shown) [Compound 5, N,N'-bis(5-phenylcarbamoyloxy-2(5H)2-oxo-4-furyl)methyl-1.12-dodeca]	–	> 100000 nM	> 1000 nM
